From ChEMBL document CHEMBL3525978, “Preferred binding orientations of phenacetin in CYP1A1 and CYP1A2 are associated with isoform-selective metabolism” (Drug Metab Dispos, 2012)

Key:
Assay type in all cases: ADME
Cytochrome P450 1A1 = molecular target: T1, Cytochrome P450 1A1 (Homo sapiens, UniProt P04798); experiment: Ratio of Kcat to Km for CYP1A1 (unknown origin) expressed in Escherichia coli DH5alpha preincubated for 5 mins before NADPH addition measured after 30 mins by HPLC analysis; conditions: 0.5 h
T1 sequence (P04798 whole entry): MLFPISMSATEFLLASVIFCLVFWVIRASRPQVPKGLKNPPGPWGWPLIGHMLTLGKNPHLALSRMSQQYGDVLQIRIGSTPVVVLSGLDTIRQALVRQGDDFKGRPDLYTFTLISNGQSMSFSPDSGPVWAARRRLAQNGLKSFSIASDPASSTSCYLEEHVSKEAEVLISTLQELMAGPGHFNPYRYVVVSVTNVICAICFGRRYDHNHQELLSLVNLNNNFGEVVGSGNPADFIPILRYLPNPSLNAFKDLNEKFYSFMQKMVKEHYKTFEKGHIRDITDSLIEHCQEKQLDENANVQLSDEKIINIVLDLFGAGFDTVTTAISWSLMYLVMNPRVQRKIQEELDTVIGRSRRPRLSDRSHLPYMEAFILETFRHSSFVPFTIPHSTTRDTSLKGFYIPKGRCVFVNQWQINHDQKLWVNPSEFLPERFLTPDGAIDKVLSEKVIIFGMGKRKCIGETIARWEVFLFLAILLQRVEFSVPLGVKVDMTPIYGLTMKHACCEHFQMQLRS

Cytochrome P450 1A2 = molecular target: T2, Cytochrome P450 1A2 (Homo sapiens, UniProt P05177); experiment: Ratio of Kcat to Km for CYP1A2 (unknown origin) expressed in Escherichia coli DH5alpha preincubated for 5 mins before NADPH addition measured after 30 mins by HPLC analysis; conditions: 0.5 h
T2 sequence (P05177 whole entry): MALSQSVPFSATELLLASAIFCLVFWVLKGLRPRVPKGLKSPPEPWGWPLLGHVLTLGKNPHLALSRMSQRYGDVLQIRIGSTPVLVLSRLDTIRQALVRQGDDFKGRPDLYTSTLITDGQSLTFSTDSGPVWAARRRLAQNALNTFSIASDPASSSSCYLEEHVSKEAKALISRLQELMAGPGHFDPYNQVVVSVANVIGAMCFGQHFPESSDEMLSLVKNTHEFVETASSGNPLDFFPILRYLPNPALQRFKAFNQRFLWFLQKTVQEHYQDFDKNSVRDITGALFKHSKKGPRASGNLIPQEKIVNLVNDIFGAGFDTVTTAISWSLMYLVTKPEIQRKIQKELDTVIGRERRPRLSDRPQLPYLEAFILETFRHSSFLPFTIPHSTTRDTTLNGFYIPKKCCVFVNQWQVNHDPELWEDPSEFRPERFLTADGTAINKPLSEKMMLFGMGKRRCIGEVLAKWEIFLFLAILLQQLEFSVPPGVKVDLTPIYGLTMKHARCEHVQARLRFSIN

[1] = Ratio of Kcat for CYP1A2 (unknown origin) expressed in Escherichia coli DH5alpha to Kcat for CYP1A1 (unknown origin) expressed in Escherichia coli DH5alpha; conditions: human
CYP1A1, CYP1A2 = experiment: Ratio of Km for CYP1A1 (unknown origin) expressed in Escherichia coli DH5alpha to Km for CYP1A2 (unknown origin) expressed in Escherichia coli DH5alpha; conditions: human

Compound | Kcat/Km (Cytochrome P450 1A1) | Kcat/Km (Cytochrome P450 1A2) | Ratio [1] | selectivity ratio (CYP1A1, CYP1A2)
CC(=O)Nc1ccc(O)cc1 [ACETAMINOPHEN] | 0.001 | 0.018 |  | 
CCOc1ccc(NC(C)=O)cc1 [PHENACETIN] |  |  | 2.5 | 8
